{"source": "patent US20220079962A1", "about": "“NUTRITIONAL COMPOSITION COMPRISING 2'FUCOSYLLACTOSE AND DIETARY BUTYRATE” (N.V. Nutricia, priority 2019, published 2022)", "key": {"[1]": {"system": "fecal slurry microbiota of breast fed infants", "assay": "Anaerobic fermentation of infant fecal slurry (BioLector Pro), acidification", "design": "species or system human", "details": "no pathogen spiking", "experimental": "Anaerobic fermentation of fecal slurry samples was tested in a BioLector Pro microfluidics mini multifermentor. Fecal slurry samples were collected from breast fed infants and from formula fed infants. These fecal slurry samples were processed by adding 0.6 grams feces in 40 ml Baby Reichardt V.6 medium+mucus+Ammonium sulfate+lactate and acetate. The resulting solutions were inserted to the BioLector Pro microfluidics mini multifermentor. The test legs were supplemented with 3-GL, 2′-FL, 3-GL+2′-FL, and GOS/FOS. The control leg was supplemented with sterile water.\nAfter fermentation the fermented solutions were tested for SCFA content (in particular acetic acid, propionic acid, butyric acid and isobutyric acid), ammonia content, lactate content and pathogen concentration. Also DNA-isolation+identification and 16s sequencing was performed to determine the composition of the microbiota.\nA 32 well plate that can handle low pH was used. […]\nThe experiment was started, and pH setpoint was either 5.5 (facial inoculum from infant 1, vaginally born, breast fed) or pH 6.0 (Inoculum from infant 2, vaginally born, breast fed) with continuous pH regulation, and temperature 37° C., humidity 85%, OD control. […] For both inocula the extent of fermentation, as measured by NaOH consumption, i.e. acid production, was highest with the combination of 3′-GU2′-FL, when compared to 3′-GL or 2′-FL alone. […]"}, "[2]": {"system": "infant intestinal microbiota", "assay": "quad-SHIME model of infant intestinal microbiota (SCFA, glycoprofile)", "design": "species or system human; Butyrate (Mean ± SD) / Iso-Butyrate (Mean ± SD) / Acetate (Mean ± SD): unit not given here", "details": "distal colon", "text": "A faecal sample from a healthy infant born via C-section, exclusively breastfed with no history of antibiotic usage, was used as inoculum to simulate the infant intestinal microbiota in the colon compartments of a quad-SHIME®—a dynamic model of the human gastrointestinal tract comprises 4 SHIME® units running in parallel and each SHIME® unit is composed of 3 reactors simulating the stomach and small intestine, proximal and distal colons."}, "[3]": {"system": "human peripheral blood mononuclear cells (PBMC)", "assay": "PBMC cytokine levels, unstimulated condition", "assay_type": "cell-based", "details": "for Relative CCL 20, observed: 0.1 w/v % 3′-GL", "text": "Isolation of PBMC from healthy donors: Human peripheral blood mononuclear cells (PBMC) from healthy donors were isolated from buffy coats (Sanquin, Amsterdam, the Netherlands). PBMC were obtained by centrifugation using Leucosep tubes (Greiner Bio-One). […] After lysis, the PBMC were resuspended in freezing medium (70% RPMI 1640 medium (Gibco, Thermo Fisher Technologies) supplemented with 10% heat-inactivated FCS and 100 U/ml penicillin-streptomycin, 20% heat-inactivated FCS and 10% DMSO (Sigma)) and cryopreserved. PBMC activation model: PBMC (0.2.10^6 cell/well) were cultured in 96-well flat bottom plates (Corning). For 24 hours the cells were pre-incubated with 2'-FL (Jennewein), 3'-GL (0-0.3% w/v; […] Sigma Aldrich) and combinations thereof. Subsequently, the cells were CD3/CD28-activated (Pelicluster CD3 and Pelicluster CD28, Sanquin) for an additional 24 hours. After incubation, IFNγ was measured by ELISA in the supernatants (see below). […] Roche) and/or 10% Triton (5 μl; negative control). […] Cytokine production of PBMC: PBMC were incubated with indicated reagents. After incubation, the supernatants were collected and IL2, IL6, IL10, IL13, IL21, TNFα, IFNγ, MIF, CCL1, CCL13, CCL17, CCL20, CCL22 and CXCL8-11 levels were measured by conducting a validated multiplex immunoassay based on Luminex technology (xMAP, Luminex Austin Tex. USA). Acquisition was conducted with the Biorad […] (Biorad laboratories, Hercules USA) in combination with xPONENT software version 4.2 (Luminex). Data was analyzed by 5-parametric curve fitting using Bio-Plex Manager software, version 6.1.1 (Biorad). After PBMC stimulation, cell culture supernatants were collected, after which cytokine responses were measured in order to test immune responsiveness of the cells. The levels of cytokines measured in stimulated conditions were corrected for the (low) levels of the cytokines measured in non-stimulated conditions. In addition, since each donor is reacting in its own efficiency onto the T cell stimulus, we calculated the individual index of cytokine response by dividing the intervention induced response by the basal stimulated response."}, "Bifidobacteria": {"system": "Bifidobacteria", "assay": "Fecal slurry fermentation, CFU of total Bifidobacteria", "experimental": "A 32 well plate that can handle low pH was used. The wells of this plate were filled with fecal solution. 2.5% (w/v) of the different sterile carbohydrate solutions (3′-GL, 2′-FL, 2′-FL/3′-GL (2.0+0.5%). and Glucose were added to the fecal slurry according to a template.\n(§1) The experiment was started, and pH setpoint was either 5.5 (facial inoculum from infant 1, vaginally born, breast fed) or pH 6.0 (Inoculum from infant 2, vaginally born, breast fed) with continuous pH regulation, and temperature 37° C., humidity 85%, OD control. At 4, 8 and 24 hours a sample is taken for CFU determination on TOS-propionate MUP agar (total Bifidobacteria), XLD agar for Salmonella enteriditis S29, and Simons citrate inositol agar for Klebsiella pneumonia K2 and for SCFA, D- and L Lactate and ammonia analysis. Fecal pellet was used for 16s DNA sequencing. For both inocula the extent of fermentation, as measured by NaOH consumption, i.e. acid production, was highest with the combination of 3′-GU2′-FL, when compared to 3′-GL or 2′-FL alone. The rate of initial acidification was high for 3′-GL and for 3′-GL/2′-FL. […] As the amount of carbohydrates that can be fermented is the same in the reaction vessels, the higher total acidification with the combination is indicative for an unexpected, synergistic effect of the combination of 2′-FL and 3′-GL. The SCFA that were produced was for the largest part acetic acid. Also L-lactic acid was produced."}, "[4]": {"system": "Salmonella enteriditis S29", "assay": "Fecal slurry fermentation spiked with pathogens, Salmonella growth", "experimental": "(§2) In addition the test legs were supplemented with Clostridium difficile C153 (difficile agar), Salmonella enteriditis S29 (XLD agar), Cronobacter sakasakii E71 (chromogenic agar) or Klebsiella pneumonia K2 (Simons citrate inositol agar). For every NDO and for the control also a pathogen free culture was prepared.\nas §1, with “The SCFA that were produced was for the largest part acetic acid. Also L-lactic acid was produced.” left out"}, "[5]": {"system": "human peripheral blood mononuclear cells (PBMC)", "assay": "PBMC cell activity (WST-1)", "assay_type": "cell-based", "details": "after 24 h", "experimental": "PBMC activation model: PBMC (0.2.10^6 cell/well) were cultured in 96-well flat bottom plates (Corning). For 24 hours the cells were pre-incubated with 2′-FL (Jennewein), 3′-GL (0-0.3% w/v; […] Sigma Aldrich) and combinations thereof. Subsequently, the cells were CD3/CD28-activated (Pelicluster CD3 and Pelicluster CD28, Sanquin) for an additional 24 hours. After incubation, IFNγ was measured by ELISA in the supernatants (see below). […] Roche) and/or 10% Triton (5 μl; negative control)."}, "Klebsiella pneumonia K2": {"system": "Klebsiella pneumonia K2", "assay": "Fecal slurry fermentation spiked with pathogens, Klebsiella growth", "details": "inoculum of baby 2", "experimental": "as §2\nas §1, with “The SCFA that were produced was for the largest part acetic acid. Also L-lactic acid was produced.” left out"}, "[6]": {"details": "unstimulated, relative to blanc (=1), 0.2% w/v 2′-FL, 0.2 mM butyrate, mean"}}, "data": [{"compound": "C[C@@H]1O[C@@H](O[C@H]2[C@H](O[C@H]3[C@H](O)[C@@H](O)C(O)O[C@@H]3CO)O[C@H](CO)[C@H](O)[C@@H]2O)[C@@H](O)[C@H](O)[C@@H]1O", "note": "(stereo partly drawn) [2′-FL, α-L-Fuc-(1→2)-β-D-Gal-(1→4)-D-Glc]", "values": [{"measurement": "extent of fermentation, as measured by NaOH consumption, i.e. acid production", "setting": "[1]; both inocula, 2.5% (w/v) carbohydrate", "result": "slower and lower acidification"}, {"measurement": "butyrate generation relative to the control and the scGOS/IcFOS groups", "setting": "[2]", "result": "generated earlier in the distal colon and at a higher concentration"}, {"measurement": "Acetate (Mean ± SD)", "setting": "[2]; D 1-D 3", "result": "38.67 ± 10.25"}, {"measurement": "Butyrate (Mean ± SD)", "setting": "[2]; D 1-D 3", "result": "0 ± 0"}, {"measurement": "Iso-Butyrate (Mean ± SD)", "setting": "[2]; D 1-D 3", "result": "0 ± 0"}, {"measurement": "Propionate (Mean ± SD)", "setting": "[2]; D 1-D 3", "result": "10.17 ± 3.01"}, {"measurement": "Acetate (Mean ± SD)", "setting": "[2]; D 4-D 11", "result": "26.22 ± 0.97"}, {"measurement": "Butyrate (Mean ± SD)", "setting": "[2]; D 4-D 11", "result": "0.74 ± 0.49"}, {"measurement": "Iso-Butyrate (Mean ± SD)", "setting": "[2]; D 4-D 11", "result": "0.68 ± 0.75"}, {"measurement": "Propionate (Mean ± SD)", "setting": "[2]; D 4-D 11", "result": "6.58 ± 0.49"}, {"measurement": "Acetate (Mean ± SD)", "setting": "[2]; D 12-D 15", "result": "22.96 ± 1.04"}, {"measurement": "Butyrate (Mean ± SD)", "setting": "[2]; D 12-D 15", "result": "0.99 ± 0.09"}, {"measurement": "Iso-Butyrate (Mean ± SD)", "setting": "[2]; D 12-D 15", "result": "0.93 ± 0.21"}, {"measurement": "Propionate (Mean ± SD)", "setting": "[2]; D 12-D 15", "result": "6.13 ± 0.63"}, {"measurement": "IL10 level compared to blanc control", "setting": "[3]; 0.2% 2′-FL, 0.2 mM butyrate", "result": "significantly (p<0.05) increased level of IL10"}, {"measurement": "CCL20 level compared to blanc control", "setting": "[3]; unstimulated", "result": "increased level of CCL20"}, {"measurement": "Relative IL10 level, observed", "setting": "[3]; unstimulated, relative to blanc (=1), 0.2% w/v 2′-FL, 0.2 mM butyrate, mean, 10 donors", "result": 3.361}, {"measurement": "Relative CCL 20, observed", "setting": "[3]; [6]", "result": 2.586}, {"measurement": "Growth of bifidobacteria", "setting": "Bifidobacteria", "result": "Growth of bifidobacteria was observed"}, {"measurement": "Salmonella growth", "setting": "[4]; inoculum of baby 1", "result": "most restricted"}, {"measurement": "Salmonella growth", "setting": "[4]; inoculum of baby 2", "result": "most restricted"}, {"measurement": "Immune cell activity as measured by WST", "setting": "[5]", "result": "significantly increased"}]}, {"compound": "Gal (beta 1-3)-Gal (beta 1-4)-Glc [3′-GL]", "values": [{"measurement": "rate of initial acidification", "setting": "[1]", "result": "high"}, {"measurement": "Klebsiella growth", "setting": "Klebsiella pneumonia K2", "result": "most inhibited"}, {"measurement": "CCL20 level compared to blanc control", "setting": "[3]; unstimulated", "result": "did not have a statistically significant effect"}, {"measurement": "Relative CCL 20, observed", "setting": "[3]; [6]", "result": 1.164}, {"measurement": "Growth of bifidobacteria", "setting": "Bifidobacteria", "result": "Growth of bifidobacteria was observed"}, {"measurement": "effect on bifidobacteria", "setting": "Bifidobacteria; inoculum of baby 2", "result": "highest"}, {"measurement": "Immune cell activity as measured by WST", "setting": "[5]", "result": "decrease in activation"}]}]}
